Laboratory results reported in patent US11208387B2, “Macrocyclic broad spectrum antibiotics” (Genentech, Inc., priority 2019, dated 2021).
In brackets after ≈: the same amount, converted by molar mass. Where two headings read alike, the source gives them in different places.

What was measured:
Assay in all cases: Serum MIC, broth micro-dilution
Assay type in all cases: cell-based
[1] = system: Acinetobacter baumannii ATCC 17978; conditions: Acinetobacter baumannii, ATCC17978
Experimental: (§1) In vitro antimicrobial activity of each compound was determined by measuring minimal inhibitor concentrations (MICs) using the broth micro-dilution technique as approved by the Clinical and Laboratory Standards Institute (CLSI) (Methods for Dilution Antimicrobial Susceptibility Tests for Bacteria that Grow Aerobically; Approved Standard—Eighth Edition. CLSI document M07-A8. Wayne, Pa.: Clinical and Laboratory Standards; 2009). Antibacterial activity was measure against Escherichia coli strain ATCC 25922 (E. coli), Klebsiella pneumoniae ATCC 700603 (K. pneumoniae), Acinetobacter baumannii ATCC 17978 (A. baumannii), and Pseudomonas aeruginosa PA01 (P. aeruginosa), each of which is representative of a clinically relevant Gram-negative species. Cells were inoculated onto plates of Mueller Hinton Agar and grown at 37° C. for 16-18 hours. Inocula suspensions were prepared by scraping cells into 1 mL of testing media (Mueller Hinton II cation adjusted Broth) and diluting to a final OD 600 nm of 0.01.
(§2) Test compounds were prepared in DMSO at a concentration of […]. The compounds were tested under several different dilution formats. In protocol 1, the compound stocks were diluted into testing media at a concentration of 64 μg/ml and serial 2-fold dilutions were made in the same media, in 96-well U bottom microtiter dishes, for a total of 10 compound concentrations. In protocol 2, the compound stocks were diluted into testing media at a concentration of 4 μg/mL and serial 2-fold dilutions were made in the same media, in 96-well U bottom microtiter dishes, for a total of 10 compound concentrations. In protocol 3, compound stocks were diluted into testing media at a concentration of 0.5 μg/mL, with serial 2-fold dilutions conducted as described above. In protocol 4, compound stocks were diluted into testing media at a concentration of 0.13 μg/mL, with serial 2-fold dilutions conducted as described above. Inocula suspensions were added to the 2-fold serial dilutions of test compounds to a final density of OD 600 nm of 0.0005 and incubated at 35° C. for 22 hours. […] To assess antimicrobial activity in the presence of plasma proteins, MICs were also determined in growth media supplemented with 50% serum. Bacterial inocula and test compound dilution plates were prepared using the same protocol as described above for the standard MICs assay, with the exception that a mixture of 50% v/v Mueller Hinton II cation adjusted Broth and 50% v/v mouse sterile filtered serum (Equitech-Bio) was used in place of 100% Mueller Hinton II cation adjusted Broth. The results are listed in Table 3 (MIC, IC50 values micromolar).

[2] = system: Escherichia coli strain ATCC 25922; conditions: Escherichia coli, ATCC25922, read-out: E. coli 25922 Serum MIC
Experimental: as §1, §2

[3] = system: Klebsiella pneumoniae ATCC 700603; conditions: Klebsiella pneumoniae, ATCC700603
Experimental: as §1, §2

[4] = system: Pseudomonas aeruginosa PA01; conditions: Pseudomonas aeruginosa, PA01, read-out: P. aeruginosa 01 Serum MIC
Experimental: as §1, §2

[5] = 50% v/v mouse serum in Mueller Hinton II cation adjusted Broth, 35° C., 22 hours, Table 4, read-out: A. baumanii 17978 Serum MIC
[6] = 50% v/v mouse serum in Mueller Hinton II cation adjusted Broth, 35° C., 22 hours, Table 5, read-out: Acinetobacter baumanii 17978 Serum MIC
[7] = 50% v/v mouse serum in Mueller Hinton II cation adjusted Broth, 35° C., 22 hours, Table 4
[8] = 50% v/v mouse serum in Mueller Hinton II cation adjusted Broth, 35° C., 22 hours, Table 4, read-out: K pneumoniae 700603 Serum MIC
[9] = 50% v/v mouse serum, compounds of Table 1, Table 7, read-out: A. baumanii 17978 Serum MIC
[10] = 50% v/v mouse serum, compounds of Table 1, Table 7
[11] = 50% v/v mouse serum, compounds of Table 1, Table 7, read-out: K. pneumoniae 700603 Serum MIC

SMILES	MIC [1, 5] [µM]	MIC [1, 6] [µM]	MIC [2, 7] [µM]	MIC [3, 8] [µM]	MIC [4, 7] [µM]	MIC [1, 9] [µM]	MIC [2, 10] [µM]	MIC [3, 11] [µM]	MIC [4, 10] [µM]
Cc1nc(-c2ccc(C(C)(C)C)cc2C#N)nc(N)c1C(=O)N[C@@H](CNS(N)(=O)=O)C(=O)N(C)[C@@H]1C(=O)N[C@@H](C)C(=O)N[C@H](C(=O)O)Cc2ccc(OC[C@H](O)CN)c(c2)-c2cc1cc(OC[C@H](O)CN)c2O [Example 39, (8S,11S,14S)-14-[[(2S)-2-[[4-amino-2-(4-tert-butyl-2-cyano-phenyl)-6-methyl-pyrimidine-5-carbonyl]amino]-3-(sulfamoylamino)-propanoyl]-methyl-amino]-3,17-bis[(2R)-3-amino-2-hydroxy-propoxy]-18-hydroxy-11-methyl-10,13-dioxo-9,12-diazatri-cyclo[13.3.1.12,6]icosa-1(18),2(20),3,5,15(19), 16-hexaene-8-carboxylic acid]	24 (≈ 24.8 µg/mL)	24 (≈ 24.8 µg/mL)	1.5 (≈ 1.55 µg/mL)	2 (≈ 2.07 µg/mL)	8 (≈ 8.27 µg/mL)				
Cc1nc(-c2ccc(C(C)(C)C)cc2)nc(C)c1C(=O)N[C@@H](CCN)C(=O)N(C)[C@@H]1C(=O)N[C@@H](C)C(=O)N[C@H](C(=O)O)Cc2ccc(OCCN)c(c2)-c2cc1ccc2OCCN (racemic) [Example 645]						67 (≈ 58 µg/mL)	0.53 (≈ 0.459 µg/mL)	0.55 (≈ 0.476 µg/mL)	67 (≈ 58 µg/mL)
Cc1nc(N2CCC(C(C)(C)C)CC2)nc(N)c1C(=O)N[C@@H](CNS(N)(=O)=O)C(=O)N(C)[C@@H]1C(=O)N[C@@H](C)C(=O)N[C@H](C(=O)O)Cc2ccc(OC[C@H](O)CN)c(c2)-c2cc1cc(OC[C@H](O)CN)c2O [Example 12, (8S,11S,14S)-18-hydroxy-11-methyl-14-[methyl-[(2S)-2-[[4-amino-2-(4-tert-butyl-1-piperidyl)-6-methyl-pyrimidine-5-carbonyl]amino]-3-(sulfamoylamino)-propanoyl]amino]-10,13-dioxo-3,17-bis[(2R)-3-amino-2-hydroxy-propoxy]-9,12-diazatricyclo-[13.3.1.12,6]icosa-1(18),2(20),3,5,15(19), 16-hexaene-8-carboxylic acid]	16 (≈ 16.2 µg/mL)	16 (≈ 16.2 µg/mL)	2 (≈ 2.03 µg/mL)	3 (≈ 3.05 µg/mL)	16 (≈ 16.2 µg/mL)				
Cc1nc(-c2c(O)cc3c(c2O)CCC3(C)C)nc(N)c1C(=O)N[C@@H](CNS(N)(=O)=O)C(=O)N(C)[C@@H]1C(=O)N[C@@H](C)C(=O)N[C@H](C(=O)O)Cc2ccc(OC[C@H](O)CN)c(c2)-c2cc1cc(OC[C@H](O)CN)c2O [Example 52, (8S,11S,14S)-18-hydroxy-11-methyl-14-[methyl-[(2S)-2-[[4-amino-2-(4,6-dihydroxy-1,1-dimethyl-indan-5-yl)-6-methyl-pyrimidine-5-carbonyl]amino]-3-(sulfamoylamino)-propanoyl]amino]-10,13-dioxo-3,17-bis[(2R)-3-amino-2-hydroxy-propoxy]-9,12-diazatricyclo-[13.3.1.12,6]icosa-1(18),2(20),3,5,15(19), 16-hexaene-8-carboxylic acid]	16 (≈ 16.8 µg/mL)	16 (≈ 16.8 µg/mL)	0.5 (≈ 0.526 µg/mL)	1 (≈ 1.05 µg/mL)	8 (≈ 8.42 µg/mL)				
CCCCCOc1ccc(-c2nc(C)c(C(=O)N[C@@H](CCN)C(=O)N(C)[C@@H]3C(=O)N[C@@H](C)C(=O)N[C@H](C(=O)O)Cc4ccc(OCCN)c(c4)-c4cc3ccc4O)c(C)n2)cc1 (racemic) [Example 642]						71 (≈ 60.6 µg/mL)	25 (≈ 21.3 µg/mL)	1.1 (≈ 0.938 µg/mL)	53 (≈ 45.2 µg/mL)
Cc1c(C#N)c(-c2ccc(C(C)(C)C)cc2)nc(N)c1C(=O)N[C@@H](CNS(N)(=O)=O)C(=O)N(C)[C@@H]1C(=O)N[C@@H](C)C(=O)N[C@H](C(=O)O)Cc2ccc(OC[C@H](O)CN)c(c2)-c2cc1cc(OC[C@H](O)CN)c2O [Example 68, (8S,11S,14S)-14-[[(2S)-2-[[2-amino-6-(4-tert-butylphenyl)-5-cyano-4-methyl-pyridine-3-carbonyl]-amino]-3-(sulfamoyl-amino)propanoyl]-methyl-amino]-3,17-bis[(2R)-3-amino-2-hydroxy-propoxy]-18-hydroxy-11-methyl-10,13-dioxo-9,12-diazatricyclo-[13.3.1.12,6]icosa-1(19),2(20),3,5,15,17-hexaene-8-carboxylic acid]	16 (≈ 16.5 µg/mL)	16 (≈ 16.5 µg/mL)	1.5 (≈ 1.55 µg/mL)	1 (≈ 1.03 µg/mL)	6 (≈ 6.19 µg/mL)				
Cc1nc(-c2ccc(C(F)(F)C(C)C)cc2)ncc1C(=O)N[C@@H](CNS(N)(=O)=O)C(=O)N(C)[C@@H]1C(=O)N[C@@H](C)C(=O)N[C@H](C(=O)O)Cc2ccc(OC[C@H](O)CN)c(c2)-c2cc1cc(OC[C@H](O)CN)c2O [Example 10, (8S,11S,14S)-18-hydroxy-11-methyl-14-[methyl-[(2S)-2-[[2-[4-(1,1-difluoro-2-methyl-propyl)-phenyl]-4-methyl-pyrimidine-5-carbonyl]amino]-3-(sulfamoylamino)-propanoyl]amino]-10,13-dioxo-3,17-bis[(2R)-3-amino-2-hydroxy-propoxy]-9,12-diazatricyclo-[13.3.1.12,6]icosa-1(18),2(20),3,5,13(19), 16-hexaene-8-carboxylic acid]	32 (≈ 32.9 µg/mL)	32 (≈ 32.9 µg/mL)	0.5 (≈ 0.515 µg/mL)	1 (≈ 1.03 µg/mL)	32 (≈ 32.9 µg/mL)				
C[C@@H]1NC(=O)[C@@H](N(C)C(=O)[C@H](CNS(N)(=O)=O)NC(=O)c2cnn(-c3ccc(OCCC(C)(C)C)cc3)c(=O)c2)c2cc(OC[C@H](O)CN)c(O)c(c2)-c2cc(ccc2OC[C@H](O)CN)C[C@@H](C(=O)O)NC1=O [Example 4, (8S,11S,14S)-18-hydroxy-11-methyl-14-[methyl-[(2S)-2-[[1-[4-(3,3-dimethyl-butoxy)phenyl]-6-oxo-pyridazine-4-carbonyl]amino]-3-(sulfamoylamino)-propanoyl]amino]-10,13-dioxo-3,17-bis[(2R)-3-amino-2-hydroxy-propoxy]-9,12-diazatricyclo-[13.3.1.12,6]icosa-1(18),2(20),3,5,15(19), 16-hexaene-8-carboxylic acid]	24 (≈ 24.9 µg/mL)	24 (≈ 24.9 µg/mL)	1 (≈ 1.04 µg/mL)	0.75 (≈ 0.779 µg/mL)	12 (≈ 12.5 µg/mL)				
Cc1nc(-c2cc3c(cc2O)C(C)(C)CC3)nc(N)c1C(=O)N[C@@H](CNS(N)(=O)=O)C(=O)N(C)[C@@H]1C(=O)N[C@@H](C)C(=O)N[C@H](C(=O)O)Cc2ccc(OC[C@H](O)CN)c(c2)-c2cc1cc(OC[C@H](O)CN)c2O [Example 57, (8S,11S,14S)-18-hydroxy-11-methyl-14-[methyl-[(2S)-2-[[4-amino-2-(6-hydroxy-1,1-dimethyl-indan-5-yl)-6-methyl-pyrimidine-5-carbonyl]amino]-3-(sulfamoylamino)-propanoyl]amino]-10,13-dioxo-3,17-bis[(2R)-3-amino-2-hydroxy-propoxy]-9,12-diazatricyclo-[13.3.1.12,6]icosa-1(18),2(20),3,5,15(19), 16-hexaene-8-carboxylic acid]	16 (≈ 16.6 µg/mL)	16 (≈ 16.6 µg/mL)	0.75 (≈ 0.777 µg/mL)	1 (≈ 1.04 µg/mL)	8 (≈ 8.29 µg/mL)				
